From patent publication US5604095A, “Unsymmetrically linked bisnaphthalimides as antitumor agents” (Cancer Therapy & Research Center, priority 1994, dated 1997)
pIC50: −log10 of the molar value. Read-outs that look alike come from different tables or passages of the source.

Key:
[1] = system: MCF-7 human breast carcinoma cell line; assay: Growth inhibition (MTT), MCF-7 human breast carcinoma cell line; type: cell-based; settings: 6 days incubation
Text: (§1) P388 murine leukemic cell line was obtained from the DCT Tumor Repository (National Cancer Institute, Frederick Cancer Research and Development, Frederick Md. 21702). HT29 Human Colon Carcinoma cell line was obtained from the American Type Culture Collection (12301 Parklawn Drive, Rockville, Md. 20852). B16 Melanoma cell line was obtained from DuPont Merck Pharmaceutical Company (Glenolden, Pa. 19036). MCF-7 Human Breast Carcinoma cell line was a gift from Dr. K. Osborne (Department of Medicine, The University of Texas Health Science Center at San Antonio, San Antonio, Tex. 78284). All cell lines were incubated at 37° C. in a humidified atmosphere of 5% CO2 -95% air. Murine B16 melanoma cell line was grown in RPMI 1640 medium supplemented with 10% heat-inactivated fetal bovine serum, 2 mM L-glutamine, 50 units/ml penicillin, 50 μg/ml streptomycin, 25 μg/ml gentamycin, 0.75% sodium bicarbonate, 10 mM HEPES buffer (pH 7.4), and 0.06 mg/ml AntiPPLO. Murine P388 leukemic and the human HT-29 colon adenocarcinoma cell lines were maintained in RPMI 1640 medium supplemented with 10% heat-inactivated fetal bovine serum. MCF-7M human breast adenocarcinoma was maintained in IMEM medium supplemented with 5% non heat-inactivated fetal bovine serum and 1 nM insulin.
(§2) Exponentially growing cells (1-2×10^3 cells, unless specified otherwise) in 0.1 ml medium were seeded on day 0 in a 96-well microtiter plate. On day 1, 0.1 ml aliquots of medium containing graded concentrations of test compounds were added in duplicate to the cell plates. After incubation at 37° C. in a humidified incubator for 3 days (P388, B16) or 6 days (HT-29, MCF-7M), the plates were centrifuged briefly and 100 μl of the growth medium was removed. Cell cultures were incubated with 50 μl of 3-(4,5-dimethylthiazol-2-yl)-2,5-diphenyl-tetrazolium bromide [MTT, 1 mg/ml in Dulbecco's phosphate buffered saline (PBS)] for 4 hr at 37° C. The resulting purple formazan precipitate was solubilized with 200 μl of 0.04N HCl in isopropyl alcohol. Absorbance was monitored in a BioRad Model 3550 Microplate Reader at a test wavelength of 570 nm and a reference wavelength of 630 nm. The absorbance was transferred to a PC 486 computer. The IC50 values were determined by a computer program (EZ-ED50) that fit all of the data to the following four-parameterlogistic equation:
(§3) Y=((Am -Ao)/(1+(X/IC50)^n))+Ao
(§4) where Am is the absorbance of control cells, Ao is the absorbance of cells in the presence of highest agent concentration, Y is the observed absorbance, X is the agent concentration, IC50 is the concentration of agent that inhibits the cell growth by 50% of control cells (based on the absorbance) and n is the slope of the curve.

[2] = system: P388 murine leukemic cell line; assay: Growth inhibition (MTT), P388 murine leukemic cell line; type: cell-based; settings: Mus musculus, 72 h, 3 days incubation
Text: P388 murine leukemic cell line was obtained from the DCT Tumor Repository (National Cancer Institute, Frederick Cancer Research and Development, Frederick Md. 21702). HT29 Human Colon Carcinoma cell line was obtained from the American Type Culture Collection (12301 Parklawn Drive, Rockville, Md. 20852). B16 Melanoma cell line was obtained from DuPont Merck Pharmaceutical Company (Glenolden, Pa. 19036). MCF-7 Human Breast Carcinoma cell line was a gift from Dr. K. Osborne (Department of Medicine, The University of Texas Health Science Center at San Antonio, San Antonio, Tex. 78284). All cell lines were incubated at 37° C. in a humidified atmosphere of 5% CO2 -95% air. […]
Exponentially growing cells (1-2×10^3 cells, unless specified otherwise) in 0.1 ml medium were seeded on day 0 in a 96-well microtiter plate. […] Absorbance was monitored in a BioRad Model 3550 Microplate Reader at a test wavelength of 570 nm and a reference wavelength of 630 nm. The absorbance was transferred to a PC 486 computer. The IC50 values were determined by a computer program (EZ-ED50) that fit all of the data to the following four-parameterlogistic equation: […]

B16 melanoma cell line = assay: Growth inhibition (MTT), B16 melanoma cell line; type: cell-based, murine; settings: for pIC50: B16, 3 days incubation, MTT
Text: as §1, §2, §3, §4

B16 melanoma = assay: In vivo tumor inhibiting activity vs. B16 melanoma in B6D2F1 mice
Method: B16 Melanoma: B6D2F1 mice received i.p. inocula of B16 murine melanoma brei prepared from B16 tumors growing subcutaneously in mice (day 0). On day 1, rumored mice were treated with drugs or vehicle control; the route of drug administration and schedule were selected as appropriate for the study in question. If dosing information for agents was not available, the maximum tolerated dose (MTD) was determined in initial dose finding experiments in non-rumored mice. In a typical experiment, drugs were given at their MTD and 1/2 MTD doses i.p. on a daily×5 schedule.
The mean survival times of all groups were calculated, and results were expressed as mean survival of treated mice/mean survival of control mice (T/C)×100%. A T/C value of 150 means that the mice in the treated group lived 50% longer than those of the control group; this is sometimes referred to as the increase in life space, or ILS value.
Mice that survived for 60 days were considered long term survivors, or cures, in the B16 model. The universally accepted cut-off for activity in this model, which has been used for years by the National Cancer Institute, is T/C=125. Conventional use of B16 over the years has set the following levels of activity: T/C<125, no activity; T/C=125-150, weak activity; T/C=150-200, modest activity; T/C=200-300, high activity; T/C>300, with long term survivors, excellent, curative activity (Goldin et al., 1981).
Statistics were performed on the data using primarily the log rank p-value test.

[3] = system: HT29 human colon carcinoma cell line; assay: Growth inhibition (MTT), HT29 human colon carcinoma cell line; type: cell-based; settings: 6 days incubation
Text: as §1, §2, §3, §4

DNA = assay: Ethidium bromide displacement assay, DNA binding and AT/GC selectivity; settings: for Ratio (AT/GC): FI50 poly(dA.dT) / FI50 poly(dG.dC)
Method: (§5) Stock Solutions. A 10X Binding solution was prepared by combining 0.93 ml of an aqueous NaCl solution (5M), 2.0 ml of an aqueous Tris HCl (500 mM) solution, 0.1 ml of an EDTA solution (500 mM) and 46.97 ml of water. The resultant solution was 93 mM in NaCl, 20 mM in Tris HCl, and 1 mM in EDTA. Stock DNA solution were prepared as follows: Poly (dG.dC)-(dG.dC) (ε254=8.4/mM; 27-7910-02), poly (dA.dT)-(dA.dT) (ε262=6.6/mM; 27-7870-02), and lambda DNA (δ260-7.0/mM; 27-4111-01) were purchased from Pharmacia. Solutions were prepared by resuspending either poly (dG.dC)-(dG.dC) or poly (dA.dT)-(dA.dT)in 1 ml of 10X DNA Binding Solution. Lambda DNA is already in solution as purchased.
(§6) Determination of concentration of the stock DNA solutions. Poly (dG.dC) - (dG.dC), poly (dA.dt) - (dA.dt) and lambda DNA concentrations were determined as follows: 980 μl of 10X DNA Binding Solution was pipetted into a 1 ml cuvette. A blank was run on the UV spectrophotometer. 20 μl of the DNA stock of unknown concentration was then added into the cuvette. The sample was then scanned between 210 nm to 500 nm and the absorbance recorded at 254 nm for poly (dG.dC)-(dG.dC), at 262 nm for poly (dA.dT)-(dA.dT) and at 260 nm for lambda DNA. The solution was transferred to a clean tube. This procedure was followed for three different solutions with the absorbance taken as the average of the three. The concentration of poly (dG.dC)-(dG.dC) stock was calculated to be A254 /8.4×1000 (in μM). The concentration of poly (dA.dT) - (dA.dT) stock was calculated to be A262 /6.6×1000 (in μM). The concentration of lambda DNA stock was calculated to be A260 /7.0×1000 (in μM).
Ethidium Bromide Displacement Assay. The binding of the bis-naphthalimides to DNA and to synthetic polynucleotide duplexes was determined by an ethidium bromide displacement assay that measures the reduction of fluorescence when ethidium bromide is displaced from DNA (Baguley, 1981). The fluorescence intensity of a 3 ml solution containing 9.3 mM NaCl, 2 mM Tris-HCI (pH 7.0), 100 μM EDTA, 1 μM DNA (in nucleotides) and 1.26 μM ethidium bromide in a quartz cuvette was measured at the excitation (546 nm) and emission (600 nm) wavelengths on a Shimadzu RF5000U spectrofluorometer. Graded concentrations of agent were then added and the fluorescence intensity was measured. The concentration of compound required to reduce the fluorescence intensity by 50% of that of control (FI50) was determined. Therefore, the lower the FI50 the stronger the binding affinity a particular compound has for DNA. […]

human cancers = settings: literature; cited from earlier work
[4] = cited from earlier work
topoisomerase II = settings: Hsiang et al., 1989; cited from earlier work
[5] = molecular target: poly-(dG.dC)-poly-(dG.dC); assay: Ethidium bromide displacement assay, poly(dG.dC)-poly(dG.dC); type: binding; settings: 50% reduction of ethidium bromide fluorescence, pH 7.0, read-out: FI50 (the source's name)
Method: as §5
as §6, with “A blank was run on the UV spectrophotometer. 20 μl of the DNA stock of unknown concentration was then added into the cuvette.” left out, “The solution was transferred to a clean tube.” left out, “The concentration of lambda DNA stock was calculated to be A260 /7.0×1000 (in μM).” left out

[6] = molecular target: poly-(dA.dT)-poly-(dA.dT); assay: Ethidium bromide displacement assay, poly(dA.dT)-poly(dA.dT); type: binding; settings: 50% reduction of ethidium bromide fluorescence, pH 7.0, read-out: FI50 (the source's name)
Method: as §5
as §6, with “A blank was run on the UV spectrophotometer. 20 μl of the DNA stock of unknown concentration was then added into the cuvette.” left out, “The solution was transferred to a clean tube.” left out, “The concentration of lambda DNA stock was calculated to be A260 /7.0×1000 (in μM).” left out

Lambda DNA = assay: Ethidium bromide displacement assay, Lambda DNA; type: binding; settings: 50% reduction of ethidium bromide fluorescence, pH 7.0, read-out: FI50 (the source's name)
Method: as §5
as §6, with “A blank was run on the UV spectrophotometer. 20 μl of the DNA stock of unknown concentration was then added into the cuvette.” left out, “The solution was transferred to a clean tube.” left out, “The concentration of lambda DNA stock was calculated to be A260 /7.0×1000 (in μM).” left out

`O=C1c2cccc3cc([N+](=O)[O-])cc(c23)C(=O)N1CCNCCNCCN1C(=O)c2cccc3cc([N+](=O)[O-])cc(c23)C1=O` [Compound 23, 2,2'[1,2-ethanediylbis[imino(2,1-ethanediyl)]]-bis[5-nitro-1H-benz[de]isoquinoline-1,3-(2H)-dione] monomethanesulfonate] gave a pIC50 [1] of 8.86, a pIC50 [2] of 8.22 and a pIC50 (B16 melanoma cell line) of 7.89. The “Wt. Ch. (Day 7)” value (B16 melanoma; 2.5 mg/kg, q.d. × 5, i.p.) was 0.95% and the pIC50 [3] was 9.28.

For `O=C1c2cccc3cc([N+](=O)[O-])cc(c23)C(=O)N1CCOCCOCCN1C(=O)c2cccc3cc([N+](=O)[O-])cc(c23)C1=O` [Compound 19, 5-[2-(3-Nitronaphthalene-1,8-dicarboximido)ethoxy]-1-(3-nitronaphthalene-1,8-dicarboximido)-3-oxapentane], the “in vitro anticancer activity against B16 melanoma (in words)” value (B16 melanoma cell line; B16 melanoma in vitro) was “potent anticancer activity against this melanoma type”, the “DNA binding (in words)” value (DNA) was “did not bind to DNA” and the “Ratio (AT/GC)” value (DNA) was 1.7.

For `O=C1c2c(O)cccc2-c2nn(CCNCCO)c3ccc(NCCNCCO)c1c23` [DuP 941], the clinical anti-tumor activity (human cancers) is listed as “exhibit clinical anti-tumor activity”.

In the case of `O=C1c2c(O)ccc(O)c2C(=O)c2c(NCCNCCO)ccc(NCCNCCO)c21` [mitoxantrone], the clinical anti-tumor activity (human cancers) is listed as “exhibit clinical anti-tumor activity”.

In the case of `COc1cccc2c1C(=O)c1c(O)c3c(c(O)c1C2=O)C[C@@](O)(C(=O)CO)C[C@@H]3O[C@H]1C[C@H](N)[C@H](O)[C@H](C)O1` [doxorubicin], the cardiomyopathy ([4]; Calabresi and Chabner, 1990) is given as “limited by an unusual cardiomyopathy”.

For `COc1cccc2c1C(=O)c1c(O)c3c(c(O)c1C2=O)C[C@@](O)(C(C)=O)C[C@@H]3O[C@H]1C[C@H](N)[C@H](O)[C@H](C)O1` [daunorubicin], the cardiomyopathy ([4]; human, in vivo) is listed as “limited by an unusual cardiomyopathy”.

`O=C1c2cccc3cc([N+](=O)[O-])cc(c23)C(=O)N1CCNCCOCCN1C(=O)c2cccc3cc([N+](=O)[O-])cc(c23)C1=O` [Compound 6] showed a pIC50 [1] of 8.59, a pIC50 [2] of 7.46 and a pIC50 (B16 melanoma cell line) of 7.96. The “Wt. Ch. (Day 7)” value (B16 melanoma; 15 mg/kg, q.d. × 5, i.p.) was -7.4%, the “activity against B16 melanoma compared with DMP840” value (B16 melanoma; comparator DMP840) was “more effective against B16 melanoma” and the “activity compared with DMP840, compounds 22 and 23, and cytoxan” value (B16 melanoma; comparators DMP840, 22, 23, cytoxan) was “more active”. The “Displacement of ethidium bromide / decrease in fluorescence intensity” value (DNA; FIG. 1, graded concentrations) was “dose-dependent decrease in fluorescence intensity” and the pIC50 [3] was 8.52.

For `COc1cc(NS(C)(=O)=O)ccc1Nc1c2ccccc2nc2ccccc12` [amsacrine], the clinical anti-tumor activity (human cancers) is given as “exhibit clinical anti-tumor activity”.

In the case of `CN(C)CCN1C(=O)c2cccc3cc(N)cc(c23)C1=O` [amonafide], the “intercalator-stabilized-topoisomerase II-DNA cleavable complex formation” value (topoisomerase II) is listed as “result in intercalator-stabilized-topoisomerase II-DNA cleavable complex formation” and the “topoisomerase II inhibition” value (topoisomerase II) is listed as “inhibit topoisomerase II”.

Work on `O=C1c2cccc3cc([N+](=O)[O-])cc(c23)C(=O)N1CCNCCOCCN1C(=O)c2cccc3cc([N+](=O)[O-])cc(c23)C1=O` [Compound 5, 5-[2-(3-Nitronaphthalene-1,8-dicarboximido)ethylamino]-1-(3-nitronaphthalene-1,8-dicarboximido)-3-oxapentane] yielded a pIC50 [5] of 7.15, a pIC50 [1] of 9.00 and a pIC50 (B16 melanoma cell line; Mus musculus, B16, 72 h) of 7.70. For the same molecule, the pIC50 [6] was 5.28, the pIC50 (Lambda DNA) was 6.62 and the “Ratio (AT/GC)” value (DNA) was 73.5. For the same molecule, the pIC50 ([3]; Homo sapiens, HT-29, 144 h) was 8.52.

For `O=P1(N(CCCl)CCCl)NCCCO1` (centres unmarked) [Cytoxan], the “Wt. Ch. (Day 7)” value (B16 melanoma; 300 mg/kg, q.d. × 1, i.p.) was -6.6%.

In the case of `O=C1c2cccc3cc([N+](=O)[O-])cc(c23)C(=O)N1CCNCCNCCN1C(=O)c2cccc3cc([N+](=O)[O-])cc(c23)C1=O` [Compound 22, 2,2'[1,2-ethanediylbis[imino(2,1-ethanediyl)]]-bis[5-nitro-1H-benz[de]isoquinoline-1,3-(2H)-dione] dimethanesulfonate], the pIC50 [5] was 7.32, the pIC50 [1] was 9.28 and the pIC50 (B16 melanoma cell line) was 8.37. The pIC50 [6] was 6.10, the “Wt. Ch. (Day 7)” value (B16 melanoma; 2.5 mg/kg, q.d. × 5, i.p.) was -0.17% and the pIC50 (Lambda DNA) was 7.28. It also gave a pIC50 ([3]; Homo sapiens, HT-29, 144 h) of 9.32.
